In test [1] the target is HPK1 kinase (Homo sapiens (Human), UniProt Q92918). The test is described as follows: HPK1 kinase activity inhibition (ADP-Glo Kinase Assay). The following applies: HPK1, MBP substrate, ATP, 25° C. 60 min. In kind it is biochemical. The method, boiled down:
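HPK1 (diluted to 30 nM before addition) preincubated 20 min at 25 °C with compound (8-point, 5-fold series) in MOPS pH 7.2 buffer with MgCl2, EDTA, EGTA, DTT. Reaction started with substrate solution of 10 μM MBP and 20 μM ATP, run 60 min at 25 °C; ADP-Glo luminescence, IC50 reported.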
On the technique in general: In ADP-Glo the light output rises with the ADP produced.

For test [2], the system named is mouse spleen cells. The test is described as follows: Spleen IL-2 ELISA assay (IL-2 secretion after Concanavalin A). The format is cell-based, mouse (C57BL/6). Conditions: highest signal vs 0.1% DMSO, ConA, 24 h. As for the experimental part:
Test Example 3: Detection of Compound's Activating Ability to Secrete Cytokine Interleukin-2 (IL-2) from Mouse Spleen Cells (Method 3)
The specific operation is as follows: the compound powder was dissolved in DMSO to 10 mM, 2 μl of the compound was added to 998 μl of RPMI 1640 medium (contained 10% FBS in this test), and the highest concentration point was obtained after vortexing. The compound solution was gradually diluted 3 times with 0.2% DMSO medium, with a total of 8 concentration points. That treated with RPMI 1640 medium solution containing 0.1% DMSO was used as a control. Add 10^5 mouse spleen cells to each well of Corning 96-well cell culture plate (product number: 3599), then add an equal volume of compound dilution, add RPMI 1640 medium containing 0.2% DMSO to the control group, and place the cells at 37° C. to incubate for 1 h in a cell culture incubator (Thermo Fisher Scientific, model: 3111). Then add Concanavalin A at a final concentration of 0.4 μg/ml and place in a cell culture incubator at 37° C. for 24 hours. Mouse IL-2 DuoSet ELISA KIT was used to detect the IL-2 content in the cell supernatant, and the Mouse […] DuoSet ELISA detection was carried out according to the operating instructions of the kit. Data are described as the highest fold ratio of the stimulated signal of the compound to the signal of 0.1% DMSO.
On the technique in general: In an ELISA, binding on a coated surface is turned into a signal by an enzyme label.

Test [3] relates to DC2.4 cells. As to the kind of experiment: DC2.4 IL-6 ELISA assay (IL-6 secretion after LPS). In kind it is cell-based, mouse. Conditions: highest signal vs 0.1% DMSO, 24 h. As for the experimental part:
Test Example 4: Detection of Compound's Activating Ability to Stimulate DC2.4 Cells to Secrete Cytokine Interleukin-6 (IL-6) ([…])
The specific operation is as follows: the compound powder was dissolved in DMSO to 10 mM, 2 μl of the compound was added to 998 μl of RPMI 1640 medium (contained 10% FBS in this test), and the highest concentration point was obtained after vortexing. The compound solution was gradually diluted 3 times with 0.2% DMSO medium, with a total of 8 concentration points. That treated with RPMI 1640 medium solution containing 0.1% DMSO was used as a control. Add 10^5 DC2.4 cells to each well of Corning 96-well cell culture plate (product number: 3599), then add an equal volume of compound dilution, add RPMI 1640 medium containing 0.2% DMSO to the control group, and place the cells at 37° C. to incubate for 1 h in an incubator (Thermo Fisher Scientific, model: 3111). Subsequently, LPS was added at a final concentration of 3.2 ng/ml, and placed in a cell culture incubator at 37° C. for 24 hours. Mouse IL-6 DuoSet ELISA KIT was used to detect the IL-6 content in the cell supernatant, and the Mouse […] DuoSet ELISA detection was carried out according to the operating instructions of the kit. Data are described as the highest fold ratio of the stimulated signal of the compound to the signal of 0.1% DMSO.

For test [4], the system named is PBMC. As to the kind of experiment: PBMC IL-2 ELISA assay (IL-2 secretion after anti-CD3/anti-CD28). Conditions: highest signal vs 0.1% DMSO, anti-CD3/CD28, 24 h. In kind it is cell-based, human. As for the experimental part:
Test Example 5: Detection of Compound's Activating Ability to Secrete Cytokine Interleukin-2 (IL-2) from PBMC (Method 5)
The specific operation is as follows: the compound powder was dissolved in DMSO to 10 mM, 2 μl of the compound was added to 998 μl of RPMI 1640 medium (contained 10% FBS in this test), and the highest concentration point was obtained after vortexing. The compound solution was gradually diluted 3 times with 0.2% DMSO medium, with a total of 8 concentration points. That treated with RPMI 1640 medium solution containing 0.1% DMSO was used as a control. 1×10˜ 5 PBMC cells were added to each well of Corning 96-well cell culture plate (item number: 3599), and then the same volume of compound diluent was added to the control group. RPMI 1640 medium containing 0.2% DMSO was added to the control group and incubated in a 37° C. cell incubator (Thermo Fisher Scientific, model: 3111) for 1 hour. Then add Anti-human CD3 Antibody and 1 μg/ml Anti-human CD28 Antibody at a final concentration of 0.1 μg/ml, and place in a 37° C. cell culture incubator to incubate for 24 hours. The Human IL-2 DuoSet ELISA KIT was used to detect the IL-2 content in the cell supernatant, and the Human IL-2 DuoSet ELISA detection was performed according to the operating instructions of the kit. Data are described as the highest fold ratio of the stimulated signal of the compound to the signal of 0.1% DMSO.

The mark [5] stands for this setting: at compound concentration 10 μM.
Where [6] appears, read: at compound concentration 0.37 μM.
Where [7] appears, read: at compound concentration 1.1 μM.
The mark [8] stands for this setting: at compound concentration 3.3 μM.
[9] abbreviates: at compound concentration 1.11 μM.

As a reminder, the IC50 is the concentration that gives 50% inhibition.

Chain of HPK1 kinase (Q92918 whole entry): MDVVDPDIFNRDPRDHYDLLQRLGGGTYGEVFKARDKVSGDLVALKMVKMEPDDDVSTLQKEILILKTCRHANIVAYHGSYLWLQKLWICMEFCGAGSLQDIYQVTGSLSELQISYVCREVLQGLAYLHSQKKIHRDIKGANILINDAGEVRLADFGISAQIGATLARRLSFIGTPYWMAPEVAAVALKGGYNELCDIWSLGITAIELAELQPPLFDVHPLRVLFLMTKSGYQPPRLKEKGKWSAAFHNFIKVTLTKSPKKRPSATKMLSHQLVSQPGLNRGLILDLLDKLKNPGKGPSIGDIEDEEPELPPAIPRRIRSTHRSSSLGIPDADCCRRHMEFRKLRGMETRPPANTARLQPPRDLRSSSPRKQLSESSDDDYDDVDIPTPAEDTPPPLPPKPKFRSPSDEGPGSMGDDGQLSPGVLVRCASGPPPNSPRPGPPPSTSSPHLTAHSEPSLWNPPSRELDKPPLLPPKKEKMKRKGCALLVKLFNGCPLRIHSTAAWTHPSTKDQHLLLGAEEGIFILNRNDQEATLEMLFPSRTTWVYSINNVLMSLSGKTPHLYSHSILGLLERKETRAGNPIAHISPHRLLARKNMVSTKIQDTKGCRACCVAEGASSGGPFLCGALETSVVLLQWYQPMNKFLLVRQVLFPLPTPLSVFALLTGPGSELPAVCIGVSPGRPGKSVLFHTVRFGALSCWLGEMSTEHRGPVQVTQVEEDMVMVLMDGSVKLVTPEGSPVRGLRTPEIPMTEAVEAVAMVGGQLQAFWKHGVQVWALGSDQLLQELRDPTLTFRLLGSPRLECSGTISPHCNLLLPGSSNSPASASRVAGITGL

Take “3-((8-(3,3-difluoropyrrolidin-1-yl)pyrido[3,4-d]pyrimidin-2-yl)amino)-1,6-dimethyl-5,6, 7,8-tetrahydro-1,6-naphthyridin-2(1H)-one [Example 85]”: half-maximal inhibition in test [1] (IC50) was put at 25.3 nM. Moreover, the “% IL-2 increased (relative to DMSO control)” value is given as 260% in test [2] (setting [5]) and 339% in test [4] (setting [5]). For the same compound, the “% IL-6 increased (relative to DMSO control)” value in test [3] (setting [5]) amounted to 305.00%.
Turning to `CN1CCc2[nH]c(=O)c(Nc3ncc4ccnc(N5CCC(F)(F)CC5)c4n3)cc2C1` [Example 74, 3-((8-(4,4-difluoropiperidin-1-yl)pyrido[3,4-d]pyrimidin-2-yl)amino)-6-methyl-5,6,7,8-tetrahydro-1,6-naphthyridin-2(1H)-one], inhibition in test [1] was half-maximal at 15.8 nM (IC50).
For `CN1CCc2[nH]c(=O)c(Nc3ncc4ccnc(C5=CCCCC5)c4n3)cc2C1` [Example 75, 3-((8-(cyclohex-1-en-1-yl)pyrido[3,4-d]pyrimidin-2-yl)amino)-6-methyl-5,6,7,8-tetra hydro-1,6-naphthyridin-2(1H)-one], in test [1], the IC50 is less than 0.1 nM.
Still for that read-out and setting: under `CN1CCc2c(cc(Nc3ncc4ccnc(N5CCCCCC5)c4n3)c(=O)n2C)C1` [Example 80, 3-((8-(azepan-1-yl)pyrido[3,4-d]pyrimidin-2-yl)amino)-1,6-dimethyl-5,6,7,8-tetrahydro-1,6-naphthyridin-2(1H)-one] stands 0.61 nM; under `CN1CCc2c(cc(Nc3ncc4ccnc(C5=CCCCC5)c4n3)c(=O)n2C)C1` [Example 81, 3-((8-(cyclohex-1-en-1-yl)pyrido[3,4-d]pyrimidin-2-yl)amino)-1,6-dimethyl-5,6,7,8-tetrahydro-1,6-naphthyridin-2(1H)-one], 0.23 nM.
For the compound `Cn1c2c(cc(Nc3ncc4ccnc(N5CCC(F)(F)CC5)c4n3)c1=O)CN(CCO)CC2` [Example 82, 3-((8-(4,4-difluoropiperidin-1-yl)pyrido[3,4-d]pyrimidin-2-yl)amino)-6-(2-hydroxyethyl)-1-methyl-5,6,7,8-tetrahydro-1,6-naphthyridin-2(1H)-one], in test [1], the IC50 is less than 0.1 nM.
The same measure, in the same setting: for `Cn1c2c(cc(Nc3ncc4ccnc(N5CCCCC5)c4n3)c1=O)CN(CCO)CC2` [Example 83, 6-(2-hydroxyethyl)-1-methyl-3-((8-(piperidin-1-yl)pyrido[3,4-d]pyrimidin-2-yl)amino)-5,6,7,8-tetrahydro-1,6-naphthyridin-2(1H)-one] the value was 0.16 nM; for `Cn1c2c(cc(Nc3ncc4ccnc(N5CCSCC5)c4n3)c1=O)CN(CCO)CC2` [Example 84, 6-(2-hydroxyethyl)-1-methyl-3-((8-thiomorpholinopyrido[3,4-d]pyrimidin-2-yl)amino)-5,6,7,8-tetrahydro-1,6-naphthyridin-2(1H)-one], 0.43 nM.
Consider `CN1CCc2c(cc(Nc3ncc4ccnc(N5CC6CC6C5)c4n3)c(=O)n2C)C1` (centres unmarked) [Example 86, 3-((8-(3-azabicyclo[3.1.0]hex-3-yl)pyrido[3,4-d]pyrimidin-2-yl)amino)-1,6-dimethyl-5,6,7,8-tetrahydro-1,6-naphthyridin-2(1H)-one], for which half-maximal inhibition in test [1] (IC50) was put at 56.3 nM.
`COCCn1c2c(cc(Nc3ncc4ccnc(N5CCC(F)(F)CC5)c4n3)c1=O)CN(C)CC2` [Example 87, 3-((8-(4,4-difluoropiperidin-1-yl)pyrido[3,4-d]pyrimidin-2-yl)amino)-1-(2-methoxyethyl)-6-methyl-5,6,7,8-tetrahydro-1,6-naphthyridin-2(1H)-one]: the IC50 in test [1] came to 19.9 nM.
The compound `COc1nc2c(cc1Nc1ncc3ccnc(N[C@@H](CO)C(C)C)c3n1)CN(C)CC2` [Example 92] gave an IC50 in test [1] of 0.23 nM. Besides, the results for the “% IL-2 increased (relative to DMSO control)” value in test [2] (setting [6]) and in test [4] (setting [6]) were 160% and 182%, respectively. For the same compound, the “% IL-6 increased (relative to DMSO control)” value in test [3] (setting [6]) is 546.00%.
For the compound `COc1nc2c(cc1Nc1ncc3ccnc(N[C@@H]4CCC[C@H]4O)c3n1)CN(C)CC2` [Example 99], in test [1], the concentration for half-maximal inhibition (IC50) was less than 0.1 nM. The “% IL-6 increased (relative to DMSO control)” value in test [3] (setting [5]) came out at 526.00%. In addition, the “% IL-2 increased (relative to DMSO control)” value in test [4] (setting [7]) is listed as 236%.
Turning to `COc1nc2c(cc1Nc1ncc3ccnc(N[C@@H]4CC[C@@H](O)C4)c3n1)CN(C)CC2` [Example 100], the half-maximal inhibitory concentration (IC50) in test [1] is less than 0.1 nM. Besides, the “% IL-2 increased (relative to DMSO control)” value stood at 190% in test [2] (setting [8]) and 239% in test [4] (setting [6]). In test [3] (setting [9]), the “% IL-6 increased (relative to DMSO control)” value amounted to 623.00%.
On to `COc1nc2c(cc1Nc1ncc3ccnc(N[C@@H]4CCC[C@@H]4O)c3n1)CN(C)CC2` [Example 102], for which the IC50 in test [1] was less than 0.1 nM. The “% IL-2 increased (relative to DMSO control)” value in test [2] (setting [8]) is recorded as 180%. Besides, the “% IL-6 increased (relative to DMSO control)” value in test [3] (setting [9]) turned out to be 553.00%.
`COc1nc2c(cc1Nc1ncc3ccnc(N[C@H]4CCC[C@H]4O)c3n1)CN(C)CC2` [Example 104] returned an IC50 in test [1] of less than 0.1 nM. In addition, the “% IL-2 increased (relative to DMSO control)” value is reported as 120% in test [2] (at compound concentration 0.0046 μM) and 139% in test [4] (setting [6]). Besides, in test [3] (setting [9]), the “% IL-6 increased (relative to DMSO control)” value came to 341.00%.
Regarding `COc1nc2c(cc1Nc1ncc3ccnc(N[C@H]4CCC[C@@H]4O)c3n1)CN(C)CC2` [Example 105], the 50% inhibitory concentration (IC50) in test [1] is less than 0.1 nM. Moreover, the “% IL-2 increased (relative to DMSO control)” value in test [2] (setting [7]) was 170%; in test [4] (setting [7]) it was 176%. Further, the “% IL-6 increased (relative to DMSO control)” value in test [3] (setting [9]) worked out at 321.00%.
